Patent publication US10835542B2, “9-aminomethyl minocycline compounds and use thereof in treating community-acquired bacterial pneumonia (CABP)” (Paratek Pharmaceuticals, Inc., priority 2016, dated 2020)
Like-named read-outs stand apart in the source and are kept apart here.

Legend:
[1] = Safety assessments in the multiple iv dose BAL study, healthy adult subjects; type: in vivo, human; conditions: 5 doses of 100 mg iv
Protocol: Safety assessments included physical examinations, electrocardiograms (ECG), vital signs, standard clinical laboratory evaluations (blood chemistry, hematology), pregnancy testing, and adverse event (AE) and serious adverse event (SAE) monitoring.
Any subject who received at least 1 dose of test article was included in the evaluation for safety. Safety was assessed by the following measures: Physical exams; AEs and SAEs; Vital signs; Laboratory assessments (Blood samples for hematology, chemistry, and coagulation (prothrombin time only)); ECG; and Pregnancy assessments.
Subjects were analyzed according to the treatment actually received.

[2] = Safety and tolerability in the food effect study; type: in vivo, human
Protocol: Safety and tolerability was assessed by: Adverse events (AEs); vital sign measurements at multiple time-points within 24 hours post-dose in each treatment period; and clinical laboratory tests 24 hours post-dose in each treatment period.

[3] = system: Haemophilus parainfluenzae; assay: Clinical success at PTE by baseline pathogen, microITT; type: in vivo, human; conditions: N1 = 18 (Compound 1), 17 (Moxifloxacin)
Chlamydophila pneumoniae = assay: as above; type: in vivo, human; conditions: N1 = 28 (Compound 1), 28 (Moxifloxacin)
[4] = Absolute bioavailability of the tablet formulation (tosylate salt); conditions: phase 3 tablet formulation (tosylate salt), fasting conditions; listed as omadacycline
Legionella pneumophila = type: in vivo, human; conditions: PTE, microITT; baseline pathogen Legionella pneumophila (culture, serology and/or urinary antigen); N1 = 37 (Compound 1), 37 (Moxifloxacin)
[5] = Intra-pulmonary (ELF, AC/AM by BAL) and plasma PK after multiple iv doses in healthy adult subjects; type: in vivo, human; conditions: for Kp at 0.5 h / Kp at 1 h / Kp at 2 h / Kp at 4 h / Kp at 8 h / Kp at 12 h / Kp at 24 h / AUC / Kp: intravenous, 100 mg; for concentration at 0.5 h: 0.5 h after fifth 100 mg iv dose; for concentration at 1 h: 1 h after fifth 100 mg iv dose; for concentration at 2 h: 2 h after fifth 100 mg iv dose; for concentration at 4 h: 4 h after fifth 100 mg iv dose; for concentration at 8 h: 8 h after fifth 100 mg iv dose; for concentration at 12 h: 12 h after fifth 100 mg iv dose; for concentration at 24 h: 24 h after fifth 100 mg iv dose
Protocol: Concomitant blood samples were taken to compare tissue with serum antibiotic concentrations. […]
One standard bronchoscopy was performed for each subject. […] A blood sample was taken at the time of bronschoscopy for plasma urea measurement.
During the bronchoscopy 4 aliquots of 50 mL each of sterile saline solution were instilled into the right lobe of the lungs, immediately aspirated, and placed on ice. The first bronchioalveolar lavage aliquot instilled (BALX) fraction was prepared and analyzed separately from subsequent instillations. The aspirate from the second through the fourth instillation, once pooled, represented the BAL fraction. An aliquot of BAL was removed and used to determine the cell count and differential cell composition including pulmonary macrophages. The remaining supernatant was centrifuged and the supernatant and cell pellet were immediately frozen pending analysis. An aliquot of the BAL supernatant was frozen separately for urea assay. The amount of test article detected in the cell pellet was normalized by the corresponding fraction of macrophages. Fraction BALX was analyzed in a similar manner, except the cell pellet was not assessed or assayed. A blood sample to determine urea concentration was obtained at the time of the second instillation (±3 minutes). The concentration of test article detected in the BALX and BAL fluid was normalized by the dilution factor with respect to urea levels detected in the BALX and BAL fractions respectively.
All completed subjects with evaluable plasma PK parameter data were included in the PK data analysis.
All the biofluid concentrations were expressed in ng/mL. All concentrations below the limit of quantification (BLQ) or missing data were labeled as such in the concentration data listings. Concentrations BLQ were treated as zero in summary statistics for concentration data only. They were not considered for calculation of PK Parameters (with the exception of the predose samples). PK parameters were determined using non-compartmental method(s) using WinNonlin Pro.
These were obtained from the above plasma PK parameter calculations (AUC0-24 and AUC0-12). The tigecycline concentration information was serve as an internal validation for assay sensitivity purposes.
The volume of the lung ELF within the BAL fluid was estimated by (ureaBAL/ureaplasma), where ureaBAL and ureaplasma represented the concentrations of urea in the BAL fluid and plasma, respectively.
AUCELF and AUCAC were determined from pooled pulmonary concentration data and were summarized by treatment group. […] For the tigecycline cohort there were 5 ELF and AC concentrations for each of the 4 timepoints over the 12 hour dosing interval.
For PK blood collection and processing, all blood samples were taken by either direct venipuncture or an indwelling cannula inserted in a forearm vein (on the arm contralateral to the infusion site) at the timepoints specified in the Study Flowchart. The PK blood sample collected at the bronchoscopy scheduled time was obtained at the time of the second BAL instillation (±3 minutes) from the arm contralateral to the infusion site.
Blood samples were collected into labeled 4 mL tubes containing sodium heparin. Immediately after the sample was collected, the tube was gently inverted 5 to 8 times to thoroughly mix the anticoagulant and then placed upright in a cryoblock or test tube rack surrounded by ice until centrifugation. Samples were centrifuged at 1500×g (gravity) for 10 minutes at approximately 4° C. within 30 minutes of collection. The resultant plasma was divided into 2 equal aliquots, placed in individual cryovials, and immediately frozen at −70° C. or colder within 1 hour of collection. The tubes were kept frozen at −70° C. or colder pending shipment to the bioanalytical laboratory.

[6] = human, ELF (epithelial lung fluid from BAL) relative to plasma, read-out: ELF to Plasma (Mean, SD)
[7] = human, alveolar macrophages (AM), read-out: AM concentration (mean ± SD)
[8] = human, epithelial lining fluid (ELF), read-out: ELF concentration (mean ± SD)
[9] = human, read-out: AM to Plasma (Mean, SD)
[10] = human, plasma, read-out: Plasma concentration at time of BAL (mean ± SD)

With CN(C)c1cc(CNCC(C)(C)C)c(O)c2c1C[C@H]1C[C@H]3[C@H](N(C)C)C(O)=C(C(N)=O)C(=O)[C@@]3(O)C(O)=C1C2=O [Compound 1, 9-[(2,2-dimethyl-propylamino)-methyl]-minocycline] the “Treatment-emergent adverse events (TEAEs) reported” value [1] was 29%, the “changes in vital signs, laboratory or ECG parameters” value [1] was “no clinically significant changes” and the “discontinuations due to TEAEs” value [1] was “no discontinuations due to TEAEs”. The “most common TEAE: headache” value [1] was 12%, the “severe or serious TEAEs” value [1] was “no severe or serious TEAEs” and the “tolerability of a single oral dose” value ([2]; 300 mg oral) was “well tolerated”. The “subjects with treatment emergent AEs” value ([2]; 32 subjects, nausea, somnolence, mild, unrelated to study drug) was “two”, the “median change from baseline in heart rate” value ([2]; all other treatment groups, all measured time points) was no more than 3 bpm and the “serious AE (SAE)” value ([2]; single 300 mg oral dose) was “no subject experienced a serious AE”. For the same compound, the “treatment-related adverse events or clinically relevant changes in laboratory values or vital signs” value ([2]; single 300 mg oral dose) was “No treatment-related adverse events”, the “Clinical Success n (%)” value [3] was 15 (83.3) n (%) and the “Clinical Success n (%)” value (Chlamydophila pneumoniae) was 25 (89.3) n (%). For the same compound, the absolute bioavailability [4] was 35%, the “Clinical Success n (%)” value (Legionella pneumophila) was 35 (94.6) n (%) and the “mean concentration in ELF higher than that in plasma” value ([5]; FIG. 1, concentration vs. time profile) was “at least 40%”. For the same compound, the “maximum concentration (plasma), mean ± SD” value ([5]; after the fifth 100 mg iv dose) was 2.26 ± 0.76 µg/mL, the Kp at 0.5 h [5, 6] was 0.95 ± 0.56 and the Kp at 1 h [5, 6] was 2.72 ± 1.26. For the same compound, the Kp at 2 h [5, 6] was 1.5 ± 0.61, the Kp at 4 h [5, 6] was 1.79 ± 0.49 and the Kp at 8 h [5, 6] was 1.07 ± 0.45. It also gave a Kp at 12 h [5, 6] of 1.44 ± 0.57, a Kp at 24 h [5, 6] of 1.65 ± 0.86 and an AUC ([5]; human, ELF (epithelial lung fluid from BAL), AUC0-24 based on mean concentration at each BAL sampling time, read-out: ELF AUCmean) of 17200 ng·h/mL. The AUC ([5]; human, ELF (epithelial lung fluid from BAL), AUC0-24 based on median concentration at each BAL sampling time, read-out: ELF AUCmedian) was 16700 ng·h/mL, the Kp ([5]; human, alveolar cells (AC) / plasma, based on AUC0-24 of mean concentrations, read-out: Ratio AC:Plasma (AUCmean)) was 25.8 and the Kp ([5]; human, alveolar cells (AC) / plasma, based on AUC0-24 of median concentrations, read-out: Ratio AC:Plasma (AUCmedian)) was 24.8. The AUC ([5]; human, alveolar cells (AC, BAL cell pellet), AUC0-24 based on mean concentration at each BAL sampling time, read-out: AC AUCmean) was 302000 ng·h/mL, the AUC ([5]; human, alveolar cells (AC, BAL cell pellet), AUC0-24 based on median concentration at each BAL sampling time, read-out: AC AUCmedian) was 292000 ng·h/mL and the Kp ([5]; human, alveolar cells (AC, mostly AM) / plasma, FIG. 1, concentration vs. time profile, read-out: mean concentration in AC (mostly AM) higher than that in plasma) was roughly 25. For the same compound, the concentration at 0.5 h [5, 7] was 14300 ± 9300 ng/mL, the concentration at 1 h [5, 7] was 12800 ± 8480 ng/mL and the concentration at 2 h [5, 7] was 10800 ± 7590 ng/mL. It also gave a concentration at 4 h [5, 7] of 18000 ± 7170 ng/mL, a concentration at 8 h [5, 7] of 12300 ± 4700 ng/mL and a concentration at 12 h [5, 7] of 12300 ± 4610 ng/mL. For the same compound, the concentration at 24 h [5, 7] was 10400 ± 4040 ng/mL, the Kp ([5]; human, epithelial lining fluid (ELF) / plasma, penetration ratio based on AUC0-24 of mean concentrations, read-out: Ratio ELF:Plasma (AUCmean)) was 1.47 and the Kp ([5]; human, epithelial lining fluid (ELF) / plasma, penetration ratio based on AUC0-24 of median concentrations, read-out: Ratio ELF:Plasma (AUCmedian)) was 1.42. The concentration at 0.5 h [5, 8] was 1730 ± 1010 ng/mL, the concentration at 1 h [5, 8] was 2250 ± 720 ng/mL and the concentration at 2 h [5, 8] was 1510 ± 940 ng/mL. The concentration at 4 h [5, 8] was 950 ± 330 ng/mL, the concentration at 8 h [5, 8] was 580 ± 190 ng/mL and the concentration at 12 h [5, 8] was 610 ± 290 ng/mL. For the same compound, the concentration at 24 h [5, 8] was 410 ± 130 ng/mL, the Kp at 0.5 h [5, 9] was 8.12 ± 5.95 and the Kp at 1 h [5, 9] was 13.8 ± 7.38. For the same compound, the Kp at 2 h [5, 9] was 12.3 ± 6.57, the Kp at 4 h [5, 9] was 34.7 ± 15.1 and the Kp at 8 h [5, 9] was 23.1 ± 11.2. The Kp at 12 h [5, 9] was 29 ± 8.78, the Kp at 24 h [5, 9] was 40.3 ± 10.3 and the AUC ([5]; human, plasma, AUC0-24 based on mean concentration at each BAL sampling time, read-out: Plasma AUCmean) was 11700 ng·h/mL. The AUC ([5]; human, plasma, AUC0-24 based on median concentration at each BAL sampling time, read-out: Plasma AUCmedian) was 11800 ng·h/mL, the concentration at 0.5 h [5, 10] was 1800 ± 130 ng/mL and the concentration at 1 h [5, 10] was 890 ± 190 ng/mL. For the same compound, the concentration at 2 h [5, 10] was 930 ± 330 ng/mL, the concentration at 4 h [5, 10] was 590 ± 150 ng/mL and the concentration at 8 h [5, 10] was 560 ± 120 ng/mL. For the same compound, the concentration at 12 h [5, 10] was 420 ± 70 ng/mL, the concentration at 24 h [5, 10] was 270 ± 50 ng/mL and the Vd ([5]; human, plasma, after the fifth 100 mg iv dose, read-out: volume of distribution, mean ± SD) was 165 ± 58 L.
